# In the oligonucleotide strings, read from the 5' end, every base follows the letter of its sugar. An asterisk marks phosphorothioate; unmarked linkages are phosphodiester. Other units and linkages are bracketed, terminal groups are in braces. A string of capitals states the bases alone. e = 2'-O-(2-methoxyethyl) (MOE); [5mC] = 5-methylcytosine; d = 2'-deoxy (DNA)
# How the values were obtained:
# [1] = tested on: rabbit apolipoprotein B mRNA; assay: Inhibition of rabbit apolipoprotein B mRNA levels in primary rabbit hepatocytes, real-time PCR; assay type: cell-based; design: % INHIB of rabbit apolipoprotein B mRNA levels: concentration or dose not given beside the values; settings: for Percent Inhibition of rabbit apolipoprotein B mRNA levels: averages from two experiments
# Excerpt: Primary rabbit hepatocytes were purchased from Invitro Technologies (Gaithersburg, Md.) and maintained in Dulbecco's modified Eagle's medium (Gibco). When purchased, the cells had been seeded into 96-well plates for use in RT-PCR analysis and were confluent.
# In accordance with the present invention, a series of oligonucleotides was designed to target different regions of rabbit apolipoprotein B, using published sequences (GenBank accession number X07480.1, incorporated herein as SEQ ID NO: 808, GenBank accession number M17780.1, incorporated herein as SEQ ID NO: 809, and a sequence was derived using previously described primers (Tanaka, Journ. Biol. Chem., 1993,268, 12713-12718) representing an mRNA of the rabbit apolipoprotein B, incorporated herein as SEQ ID NO: 810). “Target site” indicates the first (5′-most) nucleotide number on the particular target sequence to which the oligonucleotide binds. All compounds in Table 21 are chimeric oligonucleotides (“gapmers”) 20 nucleotides in length, composed of a central “gap” region consisting of ten 2′-deoxynucleotides, which is flanked on both sides (5′ and 3′ directions) by five-nucleotide “wings”. The wings are composed of 2′-methoxyethyl (2′-MOE)nucleotides. The internucleoside (backbone) linkages are phosphorothioate (P═S) throughout the oligonucleotide. All cytidine residues are 5-methylcytidines. The compounds were analyzed for their effect on rabbit apolipoprotein B mRNA levels in primary rabbit hepatocytes by quantitative real-time PCR as described in other examples herein. Primary rabbit hepatocytes were treated with 150 nM of the compounds in Table 21. For rabbit apolipoprotein B the PCR primers were: • forward primer: AAGCACCCCCAATGTCACC (SEQ ID NO: 811) • reverse primer: […] (SEQ ID NO: 812) and the PCR probe was: FAM-[…]-TAMRA (SEQ ID NO: 813) where FAM (PE-Applied Biosystems, Foster City, Calif.) is the fluorescent reporter dye) and TAMRA (PE-Applied Biosystems, Foster City, Calif.) is the quencher dye. Data are averages from two experiments. If present, “N.D.” indicates “no data”.
# In accordance with the present invention, a subset of the antisense oligonuclotides in Example 42 was further investigated in dose-response studies. Treatment doses were 10, 50, 150 and 300 nM. ISIS 233160 (SEQ ID NO: 824), ISIS 233166 (SEQ ID NO: 830), ISIS 233172 (SEQ ID NO: 835), ISIS 233175 (SEQ ID NO: 838), and ISIS 233183 (SEQ ID NO: 846) were analyzed for their effect on rabbit apolipoprotein B mRNA levels in primary rabbit hepatocytes by quantitative real-time PCR as described in other examples herein.
# [2] = Toxicity in C57BL/6 mice, two weeks (Example 48): liver enzyme levels, body, liver and spleen weight; assay type: in vivo, mouse; design: Weight BODY / Weight LIVER / Weight SPLEEN: unit not given here; settings: 25 mg/kg i.p. twice a week
# Experimental: C57BL/6 mice were divided into two groups—one group receiving oligonucleotide treatment and control animals receiving saline treatment. After overnight fasting, mice were dosed intraperitoneally twice a week with saline or 25 mg/kg of one of several oligonucleotides for two weeks. The antisense oligonucleotides used in the present study were ISIS 233172 (SEQ ID NO: 835) and ISIS 233175 (SEQ ID NO: 838), both targeted to rabbit apolipoprotein B, and ISIS 281625 (SEQ ID NO: 224), ISIS 301012 (SEQ ID NO: 247), and ISIS 301027 (SEQ ID NO: 262), targeted to human apolipoprotein B. At study termination and forty eight hours after the final injections, animals were sacrificed and evaluated for liver enzyme levels, body weight, liver weight, and spleen weight.
# [3] = LDLr(-/-) mice dose response (Example 44): liver enzyme, cholesterol and triglyceride levels; assay type: in vivo, mouse; settings: 50 mg/kg i.p. twice a week, six weeks
# Experimental: LDLr(−/−) mice, purchased from Taconic (Germantown, N.Y.) were used to evaluate antisense oligonucleotides for their potential to lower apolipoprotein B mRNA or protein levels, as well as phenotypic endpoints associated with apolipoprotein B. LDLr(−/−) mice were separated into groups of males and females. LDLr(−/−) mice were dosed intraperitoneally twice a week for six weeks with either 10, 25, or 50 mg/kg of ISIS 147764 (SEQ ID NO: 109) or ISIS 270906 (SEQ ID NO: 856) which is a 4 base mismatch of ISIS 147764, or with saline, or 20 mg/kg of Atorvastatin. At study termination animals were sacrificed and evaluated for several phenotypic markers.
# apolipoprotein B protein = assay: Apolipoprotein B protein secreted from primary Cynomolgous monkey hepatocytes, ELISA; assay type: cell-based; settings: for % Reduction of monkey apolipoprotein B protein secretion / secretion of apolipoprotein B protein (ELISA): primary Cynomolgous hepatocytes; for % Reduction in secreted apolipoprotein B protein: primary Cynomolgous monkey hepatocytes
# Experimental: Apolipoprotein B protein secreted from primary Cynomolgous hepatocytes treated with 150 and 300 nM of oligonucleotide was measured by ELISA using an apolipoprotein B protein specific kit (ALerCHEK Inc., Portland, Me.). Each result represents the average of 3 experiments.
# Apolipoprotein B protein secreted primary Cynomolgous hepatocytes treated with 50 and 150 nM of ISIS 315089 and ISIS 281625 was measured by ELISA using an apolipoprotein B protein specific kit (ALerCHEK Inc., Portland, Me.). Each result represents the average of 3 experiments.
# Apolipoprotein B protein secreted from primary Cynomolgous hepatocytes treated with 50 and 150 nM of ISIS 271009 and ISIS 301027 was measured by ELISA using an apolipoprotein B protein specific kit (ALerCHEK Inc., Portland, Me.). Each result represents the average of 3 experiments.
# [4] = tested on: Cynomolgous monkey apolipoprotein B mRNA; assay: Apolipoprotein B mRNA in primary Cynomolgous monkey hepatocytes, real-time PCR; assay type: cell-based; settings: for % Inhibition of apolipoprotein B mRNA: primary Cynomolgous monkey hepatocytes
# Experimental: Antisense inhibition by ISIS 301012 was compared to that of ISIS 326358, which is a perfect match to the Cynomolgous monkey apolipoprotein B sequence to which ISIS 301012 hybridizes. The compounds were analyzed for their effect on Cynomolgous monkey apolipoprotein B mRNA levels in primary Cynomolgous monkey hepatocytes purchased from In Vitro Technologies ([…].). Pre-plated primary Cynonomolgous monkey hepatocytes were purchased from InVitro Technologies (Baltimore, Md.). Cells were cultured in high-glucose DMEM (Invitrogen Corporation, Carlsbad, Calif.) supplemented with 10% fetal bovine serum (Invitrogen Corporation, Carlsbad, Calif.), 100 units/mL and 100 μg/mL streptomycin (Invitrogen Corporation, Carlsbad, Calif.).
# Primary Cynomolgous monkey hepatocytes were treated with 10, 50, 150 or 300 nM of antisense oligonucleotides for 48 hours. ISIS 113529 (SEQ ID NO: 859) was used as a control oligonucleotide. Untreated cells also served as a control. Cynomolgous monkey apolipoprotein B mRNA levels were quantitated by real-time PCR using the human apolipoprotein B and GAPDH primers and probes described by other examples herein. The results, shown in Table 44, are the average of 6 experiments and are expressed as percent inhibition of apolipoprotein B mRNA normalized to untreated control cells.
# In a further embodiment of the invention, antisense inhibition by ISIS 281625 was compared to that by ISIS 315089, which is a perfect match to the Cynomolgous monkey apolipoprotein B sequence to which ISIS 281625 hybridizes. Primary Cynomolgous monkey hepatocytes, cultured as described herein, were treated with 10, 50, 150 or 300 nM of ISIS 315089 or ISIS 281625 for 24 hours. Cells were treated with the control oligonucleotide ISIS 13650 (SEQ ID NO: 806) at 150 and 300 nM or ISIS 113529 (SEQ ID NO: 859) at 300 nM. Untreated cells also served as a control. Cynomolgous monkey apolipoprotein B mRNA levels in primary Cynomolgous monkey hepatocytes was quantitated using real-time PCR with human primers and probe as described by other examples herein. The results, shown in Table 46, are the average of 3 experiments and are expressed as percent inhibition of apolipoprotein B mRNA normalized to untreated control cells.
# ISIS 271009 (SEQ ID NO: 319) and ISIS 301027 (SEQ ID NO: 262) were also tested for their effects on apolipoprotein B mRNA and protein expression in Cynomolgous primary hepatoctyes. Cells, cultured as described herein, were treated with 10, 50 and 150 nM of ISIS 271009 or ISIS 301027 for 24 hours. Cells were treated with the control oligonucleotide ISIS 113529 (SEQ ID NO: 859) at 150 nM. Untreated cells also served as a control. Cynomolgous monkey apolipoprotein B mRNA levels in primary Cynomolgous monkey hepatocytes was quantitated using real-time PCR with human primers and probe as described by other examples herein. The results, shown in Table 48, are the average of 2 experiments and are expressed as percent inhibition of apolipoprotein B mRNA normalized to untreated control cells.
substance,measurement,setting,value
233172 (antisense eA*eT*eG*eG*eA*dA*dG*dA*d[5mC]*dT*dG*dG*d[5mC]*dA*dG*e[5mC]*eT*e[5mC]*eT*eA) [compound 233172],% INHIB of rabbit apolipoprotein B mRNA levels,[1],86%
same,Percent Inhibition of rabbit apolipoprotein B mRNA levels,[1]; 10 nM,60%
same,Percent Inhibition of rabbit apolipoprotein B mRNA levels,[1]; 50 nM,76%
same,Percent Inhibition of rabbit apolipoprotein B mRNA levels,[1]; 150 nM,81%
same,Percent Inhibition of rabbit apolipoprotein B mRNA levels,[1]; 300 nM,84%
same,Liver Enzymes ALT,[2],43.3 IU/L
same,Liver Enzymes AST,[2],94.3 IU/L
same,Weight BODY,[2],21.3
same,Weight LIVER,[2],1.3
same,Weight SPLEEN,[2],0.1
"270906 (antisense GTCCCTCAACATCTGAATGC; listed as DNA, chemistry not given here) [compound 270906]",Lipoproteins CHOL,[3]; female LDLr(-/-) mice,564.6 mg/dL
same,Lipoproteins HDL,[3]; female LDLr(-/-) mice,200.0 mg/dL
same,Lipoproteins LDL,[3]; female LDLr(-/-) mice,310.0 mg/dL
same,Lipoproteins TRIG,[3]; female LDLr(-/-) mice,240.4 mg/dL
same,Liver Enzymes ALT,[3]; female LDLr(-/-) mice,88.6 IU/L
same,Liver Enzymes AST,[3]; female LDLr(-/-) mice,96.0 IU/L
same,Lipoproteins CHOL,[3]; male LDLr(-/-) mice,941.0 mg/dL
same,Lipoproteins HDL,[3]; male LDLr(-/-) mice,244.2 mg/dL
same,Lipoproteins LDL,[3]; male LDLr(-/-) mice,541.9 mg/dL
same,Lipoproteins TRIG,[3]; male LDLr(-/-) mice,844.8 mg/dL
same,Liver Enzymes ALT,[3]; male LDLr(-/-) mice,348.0 IU/L
same,Liver Enzymes AST,[3]; male LDLr(-/-) mice,167.4 IU/L
315089 (antisense eA*eG*eA*eT*eT*dA*d[5mC]*d[5mC]*dA*dG*d[5mC]*d[5mC]*dA*dT*dA*eT*eG*e[5mC]*eA*eG) [compound 315089],% Reduction of monkey apolipoprotein B protein secretion,apolipoprotein B protein; 50 nM (Table 47),11%
same,% Reduction of monkey apolipoprotein B protein secretion,apolipoprotein B protein; 150 nM (Table 47),25%
same,% Inhibition of apolipoprotein B mRNA,"[4]; 10 nM, 24 hours (Table 46), ""+"" = expression increased",70%
same,% Inhibition of apolipoprotein B mRNA,"[4]; 50 nM, 24 hours (Table 46)",83%
same,% Inhibition of apolipoprotein B mRNA,"[4]; 150 nM, 24 hours (Table 46), ""+"" = expression increased",81%
same,% Inhibition of apolipoprotein B mRNA,"[4]; 300 nM, 24 hours (Table 46)",82%
326358 (antisense eG*e[5mC]*e[5mC]*eT*e[5mC]*dA*dG*dT*d[5mC]*dT*dG*d[5mC]*dT*dT*dT*eA*e[5mC]*eA*e[5mC]*e[5mC]) [compound 326358],% Reduction in secreted apolipoprotein B protein,"apolipoprotein B protein; 150 nM, 24 hours",21%
same,% Reduction in secreted apolipoprotein B protein,"apolipoprotein B protein; 150 nM, 48 hours",29%
same,% Reduction in secreted apolipoprotein B protein,"apolipoprotein B protein; 300 nM, 24 hours",17%
same,% Reduction in secreted apolipoprotein B protein,"apolipoprotein B protein; 300 nM, 48 hours",35%
same,% Inhibition of apolipoprotein B mRNA,"[4]; 10 nM, 24 hours",35%
same,% Inhibition of apolipoprotein B mRNA,"[4]; 10 nM, 48 hours",85%
same,% Inhibition of apolipoprotein B mRNA,"[4]; 50 nM, 24 hours",66%
same,% Inhibition of apolipoprotein B mRNA,"[4]; 50 nM, 48 hours",88%
same,% Inhibition of apolipoprotein B mRNA,"[4]; 150 nM, 24 hours",61%
same,% Inhibition of apolipoprotein B mRNA,"[4]; 150 nM, 48 hours",82%
same,% Inhibition of apolipoprotein B mRNA,"[4]; 300 nM, 24 hours",64%
same,% Inhibition of apolipoprotein B mRNA,"[4]; 300 nM, 48 hours",87%
"AGATTACCAGCCATATGCAG (gapmer: ten 2'-deoxy gap, five-nucleotide wings, wing chemistry not given here) [ISIS 315089]",secretion of apolipoprotein B protein (ELISA),apolipoprotein B protein; 150 nM,decrease
same,secretion of apolipoprotein B protein (ELISA),apolipoprotein B protein; 50 and 150 nM (statement after Table 49),decrease
same,inhibition of apolipoprotein B mRNA expression,"[4]; Cynomolgous monkey primary hepatocytes, 10, 50, 150 or 300 nM, 24 hours",in a dose-dependent manner
"ISIS 233175: SEQ ID NO: 838, targeted to rabbit apolipoprotein B (antisense eG*eA*e[5mC]*e[5mC]*eT*dT*dG*dA*dG*dT*dA*dG*dA*dT*dT*e[5mC]*e[5mC]*eT*eG*eG)",levels of liver enzymes relative to saline treatment,[2],drastically increased
